The results in this text go back to patent US11045559B2, “Reactive fluorogenic compound and nanocomposite for sensing hydrogen sulfide comprising the same” (KOREA INSTITUTE OF SCIENCE AND TECHNOLOGY, priority 2017, dated 2021).

Each structure is given as a SMILES string.

A short description of the experiment: Fluorescence response and chemoselectivity of ABR in organic media. The source says:
Specifically, in order to devise a H2S-responsive fluorogenic molecular probe, the present inventors have adopted a reaction strategy based on the chemoselective reduction of aryl azides to amines, which is triggered through nucleophilic attack by a hydrosulfide anion (HS^−), which is the main active form of H2S under physiological conditions. In the probe design, the 4-azidobenzyl group was selected as a self-immolative aryl azide linker, and it was linked to a fluorescent emitter, resorufin, at its 7-hydroxy position. Since the 7-hydroxy substituent is known to efficiently quench the fluorescence of resorufin, the designed molecular probe, azidobenzylresorufin (ABR), is anticipated to be nonfluorescent and able to undergo self-immolative cleavage upon reaction with HS^−, to release a 1,6-elimination product (azaquinone methide) and resorufin with fluorescence recovery. […] Along the resulting fluorescence spectrum, the ^1H-NMR analysis confirmed that the fluorescent product is resorufin recovered through the self-immolative release from ABR after reduction by H2S (FIG. 3).

As to `[N-]=[N+]=Nc1ccc(COc2ccc3nc4ccc(=O)cc-4oc3c2)cc1` [ABR, 7-(4-azidobenzyloxy)-3H-phenoxazin-3-one], the “fluorescence response toward H2S” value (NaHS present vs absent, FIG. 2a) is “fluorescence turn-on response toward H2S”. Also, the “chemoselectivity in spectroscopic response” value (reactive sulfur, oxygen, nitrogen species 100 μM (GSH 1 mM) in acetonitrile, FIG. 2b) is reported as “responded only to H2S”.
